Measured values as given in patent US20120270237A9, “METHODS FOR THE IDENTIFICATION OF KINASE INTERACTING MOLECULES AND FOR THE PURIFICATION OF KINASE PROTEINS” (Cellzone AG, priority 2009, published 2012).

How the values were obtained:
Assay in all cases: Kinobeads competition binding, HeLa Placenta lysate mix
Set-up in all cases: endogenous in cells
Details in all cases: 10 μM free compound
PKD2 = target: T1, PKD2 (Homo sapiens, UniProt Q9BZL6)
T1 sequence (Q9BZL6 1-878): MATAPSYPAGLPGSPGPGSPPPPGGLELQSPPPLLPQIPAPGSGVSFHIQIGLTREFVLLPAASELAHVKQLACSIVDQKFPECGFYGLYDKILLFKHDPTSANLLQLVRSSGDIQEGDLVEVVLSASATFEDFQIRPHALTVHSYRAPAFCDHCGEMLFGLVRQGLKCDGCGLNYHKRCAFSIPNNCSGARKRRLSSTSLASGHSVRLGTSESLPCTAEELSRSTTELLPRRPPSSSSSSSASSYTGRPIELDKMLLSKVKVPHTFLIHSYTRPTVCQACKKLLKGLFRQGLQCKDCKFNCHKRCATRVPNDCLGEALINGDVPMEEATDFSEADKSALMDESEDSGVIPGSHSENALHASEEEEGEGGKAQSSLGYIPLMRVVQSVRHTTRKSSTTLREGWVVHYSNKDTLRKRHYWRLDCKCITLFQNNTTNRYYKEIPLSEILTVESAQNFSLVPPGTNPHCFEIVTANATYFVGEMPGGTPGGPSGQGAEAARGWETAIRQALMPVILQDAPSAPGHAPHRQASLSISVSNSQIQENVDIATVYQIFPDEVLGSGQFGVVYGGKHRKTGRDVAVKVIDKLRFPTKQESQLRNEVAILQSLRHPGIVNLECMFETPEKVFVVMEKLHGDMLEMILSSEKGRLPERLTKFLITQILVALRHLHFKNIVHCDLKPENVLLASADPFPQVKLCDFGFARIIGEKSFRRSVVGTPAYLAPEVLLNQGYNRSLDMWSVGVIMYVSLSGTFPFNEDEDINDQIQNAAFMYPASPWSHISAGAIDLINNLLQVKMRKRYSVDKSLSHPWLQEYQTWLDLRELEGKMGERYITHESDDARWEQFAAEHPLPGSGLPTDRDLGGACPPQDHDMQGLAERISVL
Description: (§1) To one aliquot of cell lysate 10 μM of the free compound (FIG. 3, CZC31326) was added and allowed to bind to proteins in the lysate. Then the affinity matrix with the immobilized compound was added to capture proteins that were not interacting with the previously added free compound. Beads were separated from the lysate and bead bound proteins were eluted in SDS sample buffer and subsequently separated by SDS-Polyacrylamide gel electrophoresis (FIG. 10). Suitable gel bands were cut out and subjected to in-gel proteolytic digestion with trypsin. The second lysate aliquot was processed identically, however no free compound was added (DMSO solvent control). Peptides originating from samples 1 and 2 were labeled with iTRAQ reagents (iTRAQ 114 and iTRAQ 117) and the combined samples were analyzed with a nano-flow liquid chromatography system coupled online to a tandem mass spectrometer (LC-MS/MS) experiment followed by iTRAQ reporter ion quantification in the MS/MS spectra as described in Example 2.

IRAK4 = target: T2, IRAK4 (Homo sapiens, UniProt Q9NWZ3)
T2 sequence (Q9NWZ3 1-460): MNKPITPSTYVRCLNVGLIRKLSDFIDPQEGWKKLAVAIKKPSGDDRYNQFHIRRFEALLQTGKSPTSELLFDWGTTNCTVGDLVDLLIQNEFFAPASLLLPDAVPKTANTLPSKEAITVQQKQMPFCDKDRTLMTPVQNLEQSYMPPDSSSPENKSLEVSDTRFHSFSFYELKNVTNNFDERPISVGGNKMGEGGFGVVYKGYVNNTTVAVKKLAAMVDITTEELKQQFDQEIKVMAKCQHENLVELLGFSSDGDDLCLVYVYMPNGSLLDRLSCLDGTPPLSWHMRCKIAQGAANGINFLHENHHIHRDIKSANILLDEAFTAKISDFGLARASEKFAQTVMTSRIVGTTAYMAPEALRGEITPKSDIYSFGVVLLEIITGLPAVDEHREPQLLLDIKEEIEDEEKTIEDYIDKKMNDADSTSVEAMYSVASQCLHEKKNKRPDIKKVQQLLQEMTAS
Description: as §1

JAK1 = JAK1 (Homo sapiens, UniProt P23458)
Chain of JAK1 (P23458 whole entry): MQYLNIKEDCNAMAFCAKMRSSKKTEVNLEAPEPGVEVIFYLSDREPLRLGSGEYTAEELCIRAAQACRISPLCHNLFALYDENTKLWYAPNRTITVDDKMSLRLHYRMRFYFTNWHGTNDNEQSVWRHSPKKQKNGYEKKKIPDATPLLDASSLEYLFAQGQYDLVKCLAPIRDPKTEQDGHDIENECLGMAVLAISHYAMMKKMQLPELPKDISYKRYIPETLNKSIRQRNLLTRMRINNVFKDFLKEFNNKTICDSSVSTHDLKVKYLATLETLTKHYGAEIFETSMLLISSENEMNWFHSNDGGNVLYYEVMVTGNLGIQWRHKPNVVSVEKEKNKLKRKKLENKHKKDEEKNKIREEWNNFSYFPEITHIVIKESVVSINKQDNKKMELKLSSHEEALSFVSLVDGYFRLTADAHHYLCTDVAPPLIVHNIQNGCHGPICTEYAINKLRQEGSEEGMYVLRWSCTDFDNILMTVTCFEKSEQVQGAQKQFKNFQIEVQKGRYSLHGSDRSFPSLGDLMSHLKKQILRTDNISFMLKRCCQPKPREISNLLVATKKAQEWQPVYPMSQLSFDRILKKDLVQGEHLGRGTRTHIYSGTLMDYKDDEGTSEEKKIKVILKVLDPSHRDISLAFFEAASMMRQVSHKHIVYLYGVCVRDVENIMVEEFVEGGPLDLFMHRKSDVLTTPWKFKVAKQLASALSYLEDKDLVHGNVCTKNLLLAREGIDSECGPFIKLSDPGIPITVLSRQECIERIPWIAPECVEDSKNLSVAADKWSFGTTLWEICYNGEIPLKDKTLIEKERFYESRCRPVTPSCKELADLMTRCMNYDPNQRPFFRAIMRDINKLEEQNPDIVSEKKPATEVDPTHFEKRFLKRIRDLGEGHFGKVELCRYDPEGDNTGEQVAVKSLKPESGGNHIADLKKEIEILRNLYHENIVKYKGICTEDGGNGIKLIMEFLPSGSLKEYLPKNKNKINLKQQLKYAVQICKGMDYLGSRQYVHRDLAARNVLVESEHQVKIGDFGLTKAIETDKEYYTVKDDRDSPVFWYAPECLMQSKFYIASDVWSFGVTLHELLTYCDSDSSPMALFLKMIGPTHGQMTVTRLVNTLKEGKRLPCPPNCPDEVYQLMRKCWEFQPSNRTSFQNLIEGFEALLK
Description: as §1

RSK3 = RSK3 (Homo sapiens, UniProt Q15349)
Chain of RSK3 (Q15349 whole entry): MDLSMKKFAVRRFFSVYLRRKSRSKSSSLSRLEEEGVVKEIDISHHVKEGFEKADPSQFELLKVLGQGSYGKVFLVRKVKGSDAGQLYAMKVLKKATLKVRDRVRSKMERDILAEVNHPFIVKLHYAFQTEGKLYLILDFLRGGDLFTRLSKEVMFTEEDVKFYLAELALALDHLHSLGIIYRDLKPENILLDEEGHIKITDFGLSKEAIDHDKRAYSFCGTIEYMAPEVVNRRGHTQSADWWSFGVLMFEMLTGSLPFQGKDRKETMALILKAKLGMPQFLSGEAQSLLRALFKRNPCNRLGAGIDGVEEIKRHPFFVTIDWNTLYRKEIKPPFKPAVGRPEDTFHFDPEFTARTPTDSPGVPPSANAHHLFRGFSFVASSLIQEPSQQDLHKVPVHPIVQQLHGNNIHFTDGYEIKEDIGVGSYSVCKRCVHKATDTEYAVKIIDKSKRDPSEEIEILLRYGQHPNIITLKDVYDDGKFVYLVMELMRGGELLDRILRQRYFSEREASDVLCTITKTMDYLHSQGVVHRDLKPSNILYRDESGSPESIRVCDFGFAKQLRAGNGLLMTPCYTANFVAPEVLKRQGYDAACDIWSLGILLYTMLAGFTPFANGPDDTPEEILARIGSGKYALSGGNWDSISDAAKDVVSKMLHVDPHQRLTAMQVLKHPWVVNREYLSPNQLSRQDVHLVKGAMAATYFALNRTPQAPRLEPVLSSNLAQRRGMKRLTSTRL
Description: as §1

BCR = BCR (Homo sapiens, UniProt P11274)
Chain of BCR (P11274 whole entry): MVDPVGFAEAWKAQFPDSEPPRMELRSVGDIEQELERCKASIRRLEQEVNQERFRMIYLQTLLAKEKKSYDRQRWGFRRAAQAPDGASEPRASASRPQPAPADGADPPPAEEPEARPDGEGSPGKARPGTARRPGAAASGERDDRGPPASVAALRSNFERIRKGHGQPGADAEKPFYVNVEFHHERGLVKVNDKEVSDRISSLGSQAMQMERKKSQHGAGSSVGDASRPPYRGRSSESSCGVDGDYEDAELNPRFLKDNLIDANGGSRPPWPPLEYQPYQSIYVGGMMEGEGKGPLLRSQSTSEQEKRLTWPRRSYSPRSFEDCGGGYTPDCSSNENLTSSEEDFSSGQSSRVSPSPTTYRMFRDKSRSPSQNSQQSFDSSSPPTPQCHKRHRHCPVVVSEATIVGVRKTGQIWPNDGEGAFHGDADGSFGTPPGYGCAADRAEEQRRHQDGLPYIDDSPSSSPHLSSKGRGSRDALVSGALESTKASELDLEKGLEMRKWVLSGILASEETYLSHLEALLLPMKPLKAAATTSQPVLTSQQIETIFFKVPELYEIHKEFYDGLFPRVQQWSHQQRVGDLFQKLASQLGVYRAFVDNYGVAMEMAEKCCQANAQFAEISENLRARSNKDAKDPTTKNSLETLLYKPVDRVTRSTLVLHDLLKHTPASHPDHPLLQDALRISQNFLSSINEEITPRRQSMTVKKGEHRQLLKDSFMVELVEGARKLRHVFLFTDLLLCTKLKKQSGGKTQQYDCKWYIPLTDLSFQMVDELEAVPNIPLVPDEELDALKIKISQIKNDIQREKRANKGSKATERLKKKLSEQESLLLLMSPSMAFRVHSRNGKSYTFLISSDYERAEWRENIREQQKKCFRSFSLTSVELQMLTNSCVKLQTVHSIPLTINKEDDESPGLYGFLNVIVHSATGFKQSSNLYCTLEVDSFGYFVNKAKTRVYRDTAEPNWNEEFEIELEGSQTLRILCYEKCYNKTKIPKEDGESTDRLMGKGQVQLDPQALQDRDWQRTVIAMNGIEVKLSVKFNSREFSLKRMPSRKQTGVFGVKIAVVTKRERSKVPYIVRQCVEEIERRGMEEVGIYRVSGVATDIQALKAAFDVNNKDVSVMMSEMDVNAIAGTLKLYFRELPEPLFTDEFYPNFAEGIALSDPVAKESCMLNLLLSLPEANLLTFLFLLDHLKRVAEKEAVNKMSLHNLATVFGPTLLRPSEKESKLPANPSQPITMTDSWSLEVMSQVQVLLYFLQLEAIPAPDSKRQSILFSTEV
Description: as §1

IKKe = target: T3, IKKe (Homo sapiens, UniProt Q14164)
T3 sequence (Q14164 1-716): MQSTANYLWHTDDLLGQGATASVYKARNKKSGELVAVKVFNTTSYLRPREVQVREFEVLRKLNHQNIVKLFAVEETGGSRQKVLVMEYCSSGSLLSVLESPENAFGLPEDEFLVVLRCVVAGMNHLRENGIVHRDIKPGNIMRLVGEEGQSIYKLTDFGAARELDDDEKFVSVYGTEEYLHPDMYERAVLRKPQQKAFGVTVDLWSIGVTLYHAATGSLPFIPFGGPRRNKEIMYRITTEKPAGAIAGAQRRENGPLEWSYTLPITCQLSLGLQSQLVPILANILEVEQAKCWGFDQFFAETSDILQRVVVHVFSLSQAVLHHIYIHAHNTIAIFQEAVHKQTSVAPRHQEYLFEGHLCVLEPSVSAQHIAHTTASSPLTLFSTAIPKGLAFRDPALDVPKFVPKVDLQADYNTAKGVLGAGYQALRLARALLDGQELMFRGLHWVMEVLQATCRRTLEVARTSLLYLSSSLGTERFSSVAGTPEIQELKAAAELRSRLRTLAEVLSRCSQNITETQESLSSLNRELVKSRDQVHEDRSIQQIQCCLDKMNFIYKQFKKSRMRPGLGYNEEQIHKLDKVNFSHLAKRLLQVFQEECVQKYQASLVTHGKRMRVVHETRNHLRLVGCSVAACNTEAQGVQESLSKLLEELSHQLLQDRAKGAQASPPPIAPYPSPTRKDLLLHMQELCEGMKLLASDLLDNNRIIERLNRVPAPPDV
Description: as §1

RIPK2 = RIPK2 (Homo sapiens, UniProt O43353)
Chain of RIPK2 (O43353 whole entry): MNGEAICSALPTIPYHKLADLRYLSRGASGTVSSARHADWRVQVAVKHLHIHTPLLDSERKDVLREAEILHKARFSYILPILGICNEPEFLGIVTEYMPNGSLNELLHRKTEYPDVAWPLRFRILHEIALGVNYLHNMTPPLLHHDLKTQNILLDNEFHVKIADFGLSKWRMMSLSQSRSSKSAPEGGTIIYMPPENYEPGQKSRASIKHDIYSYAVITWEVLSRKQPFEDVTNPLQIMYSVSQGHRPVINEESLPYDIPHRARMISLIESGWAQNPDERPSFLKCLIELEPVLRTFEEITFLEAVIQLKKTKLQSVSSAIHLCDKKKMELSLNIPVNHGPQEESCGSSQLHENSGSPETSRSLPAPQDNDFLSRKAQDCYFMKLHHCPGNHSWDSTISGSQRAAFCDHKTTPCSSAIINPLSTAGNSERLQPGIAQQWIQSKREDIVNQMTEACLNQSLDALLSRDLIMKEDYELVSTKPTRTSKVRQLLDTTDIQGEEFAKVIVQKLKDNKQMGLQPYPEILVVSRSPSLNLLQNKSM
Description: as §1

MAP2K1 = MAP2K1 (Homo sapiens, UniProt Q02750)
Chain of MAP2K1 (Q02750 whole entry): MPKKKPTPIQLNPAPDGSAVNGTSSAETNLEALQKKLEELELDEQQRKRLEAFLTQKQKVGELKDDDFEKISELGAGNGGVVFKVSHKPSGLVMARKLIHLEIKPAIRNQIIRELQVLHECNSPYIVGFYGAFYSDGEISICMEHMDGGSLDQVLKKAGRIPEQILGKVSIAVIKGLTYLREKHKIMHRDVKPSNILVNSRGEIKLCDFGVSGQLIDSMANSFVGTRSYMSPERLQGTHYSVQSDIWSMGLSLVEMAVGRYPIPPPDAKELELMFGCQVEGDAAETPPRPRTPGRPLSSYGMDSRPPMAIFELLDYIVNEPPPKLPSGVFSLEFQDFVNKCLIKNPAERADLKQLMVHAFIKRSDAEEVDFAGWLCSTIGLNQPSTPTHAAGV
Description: as §1

CS(=O)(=O)Nc1ccccc1Nc1nc(Nc2cccc(OCCN)c2)ncc1Cl [CZC31326, N-(2-(2-(3-(2-aminoethoxy)phenylamino)-5-chloropyrimidin-4-ylamino)phenyl)methanesulfonamide]
inhibition at 10 µM (PKD2): 95.4% | Competition % (IRAK4): 93.8% | Competition % (JAK1): 95% | inhibition at 10 µM (RSK3): 94.8% | inhibition at 10 µM (BCR): 90.2% | inhibition at 10 µM (IKKe): 89.7% | inhibition at 10 µM (RIPK2): 92.2% | inhibition at 10 µM (MAP2K1): 83.7%
